Measured values: patent US9771378B2 (Denali Therapeutics, Inc., priority 2014, dated 2017)

Test system: Aβ42 (human neuroglioma H4 cells expressing human wild type APP751)
Assay: In vitro cell screening assay with sandwich ELISA quantification of Aβ42 peptide
Type: cell-based
Details: H4 cells stably expressing human wild type APP751; Pro293 chemically defined medium; compounds 0.003-10 μM; incubated overnight (16-18 h); supernatant Aβ42 by sandwich ELISA; normalized to DMSO and DAPT; read-out: Aβ42 H4 Prot Fre IC50
Procedure, shortened: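 H4 neuroglioma cells stably expressing human wild-type APP751 were treated in Pro293 medium with compounds (0.003-10 μM, 0.33% DMSO) for 16-18 h at 37° C. Secreted Aβ42 measured by sandwich ELISA (C-terminal capture, 4G8-HRP detection, TMB, 450 nm). IC50 by variable-slope sigmoidal regression on percent of DMSO control.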

| SMILES | IC50 |
| --- | --- |
| COc1nc(Nc2ncc3c(n2)N(C)C(c2ccccc2C)CO3)ccc1-n1cnc(C)c1 (single isomer, unassigned; (+)) [Example 180B] | 374 nM |
| COc1cc(Nc2ncc3c(n2)N(C)C2(CC2)CO3)cnc1-n1cnc(C)c1 [Example 260] | 213 nM |
| Cc1cn(-c2ccc(Nc3ncc4c(n3)N(C)C(c3ccccc3C(F)(F)F)CO4)cc2F)cn1 (single isomer, unassigned; (+)) [Example 84A] | 203 nM |
| COc1cc(Nc2ncc3c(n2)N(C)C(c2cc(F)c(F)cc2F)CO3)cnc1-n1cnc(C)c1 (single isomer, unassigned; (-)) [Example 181A] | 9 nM |
| Cc1cn(-c2ccc(Nc3ncc4c(n3)N3CCC[C@]3(C)CO4)cc2F)cn1 [Example 293, (R)-N-(3-fluoro-4-(4-methyl-1H-imidazol-1-yl)phenyl)-6a-methyl-6a, 7,8,9-tetrahydro-6H-pyrimido [5,4-b] pyrrolo [1,2-d] [1, 4] oxazin-2-amine] | 276 nM |
| COc1cc(Nc2ncc3c(n2)N(C)C(c2cc(F)ccc2C(F)(F)F)CO3)ccc1-n1cnc(C)c1 (single isomer, unassigned; (-)) [Example 105A] | 88 nM |
| COc1cc(Nc2ncc3c(n2)N(C)C(C2COC2)CO3)cnc1-n1cnc(C)c1 (single isomer, unassigned; (-)) [Example 243B] | 814 nM |
| COc1cc(Nc2ncc3c(n2)N(C)C(c2ccc(F)cc2F)CO3)cnc1-n1cnc(C)c1 (single isomer, unassigned; (-)) [Example 186B] | 328 nM |
| COc1cc(Nc2ncc3c(n2)N(C)C(c2ccccc2)CO3)ccc1-n1cnc(C)c1 (racemic) [Example 45, N-(3-methoxy-4-(4-methyl-1H-imidazol-1-yl)phenyl)-8-methyl-7-phenyl-7,8-dihydro-6H-pyrimido[5,4-b][1,4]oxazin-2-amine] | 58 nM |
| COc1cc(Nc2ncc3c(n2)N(C)C(C2CCC(F)(F)CC2)CO3)cnc1-n1cnc(C)c1 (single isomer, unassigned; (+)) [Example 221A] | 24 nM |
| COc1cc(Nc2ncc3c(n2)N(C)C2(CO3)CC(F)(F)C2)cnc1-n1cnc(C)c1 [Example 278] | 92 nM |
| Cc1cn(-c2ccc(Nc3ncc4c(n3)N(C)C(c3cc(F)c(F)cc3C(F)(F)F)CO4)cc2F)cn1 (single isomer, unassigned) [Example 198B] | 101 nM |
| Cc1cc(-c2ccc(Nc3ncc4c(n3)N(C)C(c3ccccc3C)CO4)cc2)ccn1 (single isomer, unassigned; (-)) [Example 29A] | 1100 nM |
| COc1cc(Nc2ncc3c(n2)N2C(=O)CCC2CO3)cnc1-n1cnc(C)c1 (single isomer, unassigned; (+)) [Example 302A, (+)-2-((5-methoxy-6-(4-methyl-1H-imidazol-1-yl)pyridin-3-yl)amino)-6,6a, 7,8-tetrahydro-9H-pyrimido [5,4-b] pyrrolo [1,2-d] [1, 4] oxazin-9-one] | > 3000 nM |
| Cc1cn(-c2ccc(Nc3ncc4c(n3)N(C)C(C3CCOCC3)CO4)cc2F)cn1 (single isomer, unassigned; (+)) [Example 109A] | 212 nM |
| COc1cc(Nc2ncc3c(n2)N(C)C(C)CO3)ccc1-n1cnc(Cl)c1 (single isomer, unassigned; (-)) [Example 202A] | 167 nM |
| Cc1cc(-c2ccc(Nc3ncc4c(n3)N(C)C(c3cc(F)cc(F)c3)CO4)cc2)ccn1 (single isomer, unassigned; (+)) [Example 28B] | 60 nM |
| Cc1cc(-c2ccc(Nc3ncc4c(n3)N(C)C(c3cc(F)c(F)c(F)c3)CO4)cc2)ccn1 (single isomer, unassigned; (-)) [Example 37B] | 1540 nM |
| Cc1cn(-c2ccc(Nc3ncc4c(n3)N(C)C(C(F)(F)F)CO4)cc2C#N)cn1 (single isomer, unassigned; (+)) [Example 232A, (+)-2-(4-methyl-1H-imidazol-1-yl)-5-((8-methyl-7-(trifluoromethyl)-7,8-dihydro-6H-pyrimido [5,4-b] [1, 4]oxazin-2-yl)amino) benzonitrile] | 280 nM |
| Cc1cc(-c2ccc(Nc3ncc4c(n3)N(C)C(c3cc(F)c(F)c(F)c3)CO4)cc2F)ccn1 (single isomer, unassigned; (-)) [Example 36B] | 1250 nM |
| COc1cc(Nc2ncc3c(n2)N(C)C(c2cc(F)c(F)c(F)c2)CO3)ccc1-n1cnc(C)c1 (single isomer, unassigned; (-)) [Example 40A] | 279 nM |
| COc1cc(Nc2ncc3c(n2)N2CCC[C@]2(C)CO3)ccc1-n1cnc(C)c1 [Example 294, (R)-N-(3-methoxy-4-(4-methyl-1H-imidazol-1-yl)phenyl)-6a-methyl-6a, 7,8,9-tetrahydro-6H-pyrimido [5,4-b] pyrrolo [1,2-d] [1, 4] oxazin-2-amine] | 80 nM |
| COc1cc(Nc2ncc3c(n2)N(C)C(c2cc(F)c(F)c(F)c2)CO3)ccc1-c1ccnc(C)c1 (single isomer, unassigned; (-)) [Example 39B] | 984 nM |
| Cc1cn(-c2ccc(Nc3ncc4c(n3)N(C)C3(CC3)CO4)cc2F)cn1 [Example 258] | 324 nM |
| COc1cc(Nc2ncc3c(n2)N(C)C(C(F)(F)F)CO3)ccc1-n1cnc(C)n1 (single isomer, unassigned; (+)) [Example 242B] | 1860 nM |

| SMILES | IC50 |
| --- | --- |
| COc1cc(Nc2ncc3c(n2)N(C)[C@@H](c2ccccc2)CO3)ccc1-n1cnc(C)c1 [Example 21A, (S)—N-(3-methoxy-4-(4-methyl-1H-imidazol-1-yl)phenyl)-8-methyl-7-phenyl-7,8-dihydro-6H-pyrimido[5,4-b][1,4]oxazin-2-amine] | 22 nM |
| COc1cc(Nc2ncc3c(n2)N(C)C(c2ccccc2C)CO3)ccc1-n1cnc(C)c1 (single isomer, unassigned; (-)) [Example 31A] | 138 nM |
| COc1cc(Nc2ncc3c(n2)N2CCCC2CO3)ccc1-n1cnc(C)c1 (single isomer, unassigned; (+)) [Example 290B, (+)-N-(3-methoxy-4-(4-methyl-1H-imidazol-1-yl)phenyl)-6a, 7,8,9-tetrahydro-6H-pyrimido [5,4-b] pyrrolo [1,2-d] [1, 4] oxazin-2-amine] | 151 nM |
| COc1cc(Nc2ncc3c(n2)N(C)C(C(F)(F)F)CO3)ccc1-n1cnc(C)c1 (single isomer, unassigned; (+)) [Example 187A] | 419 nM |
| COc1cc(Nc2ncc3c(n2)N(C)C(CC(F)(F)F)CO3)cnc1-n1cnc(C)c1 (single isomer, unassigned; (+)) [Example 238B] | 66 nM |
| COc1cc(Nc2ncc3c(n2)N(C)C2(CC2)CO3)ccc1-c1cnn(C)c1 [Example 269] | 703 nM |
| COc1cc(Nc2ncc3c(n2)N(C)C(C2CCC(F)(F)CC2)CO3)ccc1-n1cnc(C)c1 (single isomer, unassigned; (-)) [Example 216A] | 320 nM |
| Cc1cn(-c2ccc(Nc3ncc4c(n3)N(C)C(C)(C)CO4)cc2F)cn1 [Example 255] | 488 nM |
| COc1cc(Nc2ncc3c(n2)N(C)C(c2cc(F)cc(F)c2)CO3)cnc1-n1cnc(C(F)(F)F)c1 (single isomer, unassigned; (+)) [Example 206A] | 27 nM |
| COc1cc(Nc2ncc3c(n2)N(C)C(C(F)(F)F)CO3)cnc1-n1cnc(C)c1 (single isomer, unassigned; (+)) [Example 193A] | 908 nM |
| COc1cc(Nc2ncc3c(n2)N(C)C(c2ccccc2OC(F)(F)F)CO3)ccc1-n1cnc(C)c1 (single isomer, unassigned; (-)) [Example 60A] | 92 nM |
| COc1cc(Nc2ncc3c(n2)N(C)C(c2ccc(F)cc2C(F)(F)F)CO3)ccc1-n1cnc(C)c1 (single isomer, unassigned; (-)) [Example 94A] | 78 nM |
| COc1cc(Nc2ncc3c(n2)N(C)C(c2cc(F)cc(F)c2)CO3)ccc1-n1cnc(C)c1 (racemic) [Example 30] | 18 nM |
| COc1ccc(Cl)c(C2COc3cnc(Nc4cnc(-n5cnc(C)c5)c(OC)c4)nc3N2C)c1 (single isomer, unassigned; (-)) [Example 208B] | 136 nM |
| COc1cc(Nc2ncc3c(n2)N(C)C(c2ccc(F)cc2F)CO3)ccc1-n1cnc(C)c1 (racemic) [Example 48] | 36 nM |
| COc1cc(Nc2ncc3c(n2)N(C)C(c2cc(F)c(F)cc2Cl)CO3)ccc1-n1cnc(C)c1 (single isomer, unassigned; (-)) [Example 103B] | 219 nM |
| COc1cc(Nc2ncc3c(n2)N(C)C(c2cc(F)cc(F)c2)CO3)ccc1-n1cnc(C)n1 (single isomer, unassigned; (-)) [Example 244B] | 935 nM |
| COc1nc(Nc2ncc3c(n2)N(C)C(c2cc(F)cc(F)c2)CO3)ccc1-c1ccnc(C)n1 (single isomer, unassigned; (+)) [Example 183A] | > 3000 nM |
| COc1nc(Nc2ncc3c(n2)N(C)C(c2cc(F)cc(F)c2)CO3)c(F)cc1-c1cnn(C)c1 (racemic) [Example 197] | > 3000 nM |
| Cc1cn(-c2ccc(Nc3ncc4c(n3)N(C)C(c3ccccc3C)CO4)cc2F)cn1 (single isomer, unassigned; (-)) [Example 34B] | 460 nM |
| COc1cc(Nc2ncc3c(n2)N(C)C(c2cc(F)cc(F)c2)CO3)ccc1-c1ccnc(C)c1 (single isomer, unassigned; (-)) [Example 42B] | 801 nM |
| Cc1cn(-c2ncc(Nc3ncc4c(n3)N(C)C(C(F)(F)F)CO4)cc2Cl)cn1 (single isomer, unassigned; (-)) [Example 229A] | 215 nM |
| Cc1cn(-c2ccc(Nc3ncc4c(n3)N(C)C(Cc3ccccc3)CO4)cc2F)cn1 (single isomer, unassigned; (+)) [Example 59A] | 81 nM |
| COc1cc(Nc2ncc3c(n2)N(C)C(C)(C)CO3)ccc1-n1cnc(C)c1 [Example 254] | 54 nM |
| COc1cc(Nc2ncc3c(n2)N(C)C(C2CC(F)(F)C2)CO3)cnc1-n1cnc(C)c1 (single isomer, unassigned; (-)) [Example 219B] | 398 nM |
